According to patent US11376246B2, “Inhibiting mutant IDH-1” (FORMA Therapeutics, Inc., priority 2018, dated 2022):

What was measured:
[1] = Literature reported data; cited from earlier work
[2] = Dynamic vapor sorption (DVS); type: physicochemical; details: 25° C./90% RH

Row | SMILES | BBB+ [1] | maximum water uptake (DVS) [2] [% w/w]
1 | N#Cc1ccnc(N2C(=O)CC[C@H]2C(=O)N(c2cncc(F)c2)[C@H](C(=O)NC2CC(F)(F)C2)c2ccccc2Cl)c1 [AG-120] | No | –
2 | C[C@@H](Nc1nc(N[C@H](C)C(F)(F)F)nc(-c2cccc(Cl)n2)n1)C(F)(F)F [AG-881] | Yes | –
3 | C[C@H](Nc1ccc(C#N)n(C)c1=O)c1cc2cc(Cl)ccc2[nH]c1=O [Compound 1 Type A, (S)-5-((1-(6-chloro-2-oxo-1,2-dihydroquinolin-3-yl)ethyl)amino)-1-methyl-6-oxo-1,6-dihydropyridine-2-carbonitrile] | – | 0.25
